Key:
[1] = molecular target: T1, bradykinin β2 receptor (Cavia porcellus, UniProt O70526); test: Ki on membrane preparations of guinea-pig ileum, 3H-bradykinin competition; type: binding; conditions: 3H-bradykinin 0.25 to 0.3 nmol/l, guinea-pig ileum membranes, room temperature, 60 minutes, pH 6.8
T1 construct: membrane preparations of the guinea-pig ileum; from tissue; host or cells: guinea-pig ileum membranes
T1 sequence (O70526 1-372): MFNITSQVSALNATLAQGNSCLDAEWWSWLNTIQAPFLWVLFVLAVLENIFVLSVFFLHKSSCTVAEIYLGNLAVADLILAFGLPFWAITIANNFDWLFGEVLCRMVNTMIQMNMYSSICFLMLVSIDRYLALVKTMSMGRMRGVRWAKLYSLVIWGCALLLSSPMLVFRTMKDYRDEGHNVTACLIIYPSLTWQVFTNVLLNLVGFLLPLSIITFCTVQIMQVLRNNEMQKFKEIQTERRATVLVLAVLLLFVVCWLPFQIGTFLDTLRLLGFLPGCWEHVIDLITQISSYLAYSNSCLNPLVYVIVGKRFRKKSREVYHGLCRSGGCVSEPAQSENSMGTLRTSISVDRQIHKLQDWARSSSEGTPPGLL
Method: B. Innis et al., Proc. Natl. Acad. Sci. USA, 17 (1981) 2630) according to the following procedure: […] Ligand: ^3 H-BRADYKININ (from NEN Du Pont) Both buffers are adjusted to pH 6.8 using 5 molar NaOH. Guinea-pig ilea are grossly freed from intestinal contents by careful brushing and cleaned in 0.9% strength NaCl solution. The pieces of ilea about 2 cm long are transferred to ice-cold TES buffer (about 1 g/10 ml) and homogenized in an ice bath for about 30 sec. using an Ultraturrax. The homogenate is then filtered through three layers of gauze, and the filtrate is centrifuged at 50,000 g/10 minutes. The supernatant is discarded, and the pellet is rehomogenized in the same volume of TES buffer and centrifuged again at 50,000 g/10 minutes. The pellet is rehomogenized in incubation buffer (about 1 g/5 ml) and frozen at -70° C. in cryotubes in 2 ml portions. The protein concentration of the finished membrane suspension is determined according to LOWRY and should be about 15 μg/100 μl. All incubations are carried out at room temperature for 60 minutes on microtiter plates (96×300 μl) in a 200 μl volume. All mixtures are in incubation buffer. To this end, 50 μl of the radioligand, 50 μl of the preparation to be tested, and 100 μl of the membrane suspension are pipetted into the hollows of the microtiter plate in succession. Nonspecific binding: for each concentration of the radioactive ligand, the nonspecific binding must be determined. […] In this test, HOE 140 (10 μmol/l) is used. […] The reaction is started by the addition of 100 μl of the membrane suspension. Here a fixed quantity of the radioactive ligand (0.25 to 0.3 nmol/l of ^3 H-bradykinin) and various concentrations of the unlabeled agonists or antagonists are employed. 50 μl of the preparations or standard to be tested in the concentrations 10^-5 to 10^-10 mol/l are added to 50 μl in each case of the ^3 H-bradykinin solution, and the reaction is started by addition of 100 μl of membrane suspension. Triplicate determinations also are carried out in this test, and three samples are incubated with 10 μmol/l of HOE 140 to determine the nonspecific binding. The preparations to be tested for competition are completely dissolved in a concentration of 1 mmol/l in dimethyl sulfoxide (DMSO), and then further diluted with DMSO. This solution is then diluted 1:25 with incubation buffer. […] The still moist filters are punched out into mini-scintillation tubes, and these are filled with 3 ml of scintillator. After a soaking time of about 12 hours, the samples are briefly shaken and measured in a beta-counter. […] If a displacement of the radioligand of 50% or more is detectable at the highest concentration, a complete analysis (competition experiment) is carried out using at least 8 concentrations. Assessment is carried out by means of the LIGAND program package (McPherson, Minson & Rodbard, marketed by: Elsevier-BIOSOFT), which carries out the necessary calculations for the determination of IC50 and Ki values. This program moreover carries out graphic presentations of the saturation or displacement curves as well as the SCATCHARD plot, HILL plot, or HOFSTEE plot.

[2] = system: bradykinin-induced contraction of the guinea-pig ileum; test: bradykinin-induced contraction of the guinea-pig ileum; conditions: isolated guinea-pig ileum, bradykinin 4×10^-8 mol/l, antagonist action time 10 min, 37° C.
Excerpt: In addition, for the determination of the bradykinin-antagonistic action of the compounds of fomula (I), their effect on the bradykinin-induced contraction of the guinea-pig ileum can be measured according to the following protocol:
Guinea-pigs about 300 g in weight (Morioth strain, .male..female.) are killed by a blow to the neck and exsanguinated. The ileum is dissected out in a length of about 20 cm, rinsed with Tyrode solution (Record Syringe), and thus freed from the intestinal contents. It is then divided into sections 1.5 cm long. These are fixed in organ baths of 10 ml capacity, which are filled with Tyrode solution, and connected to extension-measuring strips (isometric contraction measurement). The preload is 1 g. The Tyrode solution is warmed to 37° C. in a water bath and bubbled through with compressed air. After an interval of 30 min, the experiment is begun. After recording the biological zero line, bradykinin in a final concentration of 4×10^-8 mol/l is added per organ bath, and the […] is recorded. Rinsing with Tyrode solution is then carried out for three min., and after a break of 20 min., bradykinin is again added. The maximum of the contraction is achieved (control). Rinse again, break. […] The experiment is recorded on a pen recorder.
Thus, the compounds of Examples 6 and 20, for example, have the following IC50 values determined by the above procedure: […]

SMILES	Ki [1]	IC50 [2]
CSc1ccc(N(C)C(=O)CNC(=O)/C=C/c2ccc(NC(C)=O)nc2)c(SC)c1COc1cccc2ccc(C)nc12 [Example 24, 8-[2,6-Dithiomethyl-3-(3-(6-acetylaminopyridin-3-yl)acryloylglycyl-N-methyl)aminobenzyloxy]-2-methylquinoline]	1 nM	–
Cc1ccc2cccc(OCc3c(Cl)ccc(N(C)C(=O)CNC(=O)NCCCCN)c3C#N)c2n1 [Example 6, 8-[6-Chloro-2-cyano-3-[N-(4-aminobutylaminocarbonylglycyl-N-methyl]aminobenzyloxy]-2-methylquinoline bistrifluoroacetate]	0.1 nM	350 nM
COc1c(N(C)C(=O)CNC(=O)/C=C/c2ccc(C(F)(F)F)cc2)ccc(SC)c1COc1cccc2ccc(C)nc12 [Example 16]	17.4 nM	–
CCNC(=O)NCC(=O)N(C)c1ccc(OC)c(COc2cccc3ccc(C)nc23)c1C#N [Example 9, N-[2-Cyano-4-methoxy-3-(2-methylquinolin-8-yloxymethyl)phenyl]-2-(3-ethylureido)-N-methylacetamide]	6 nM	–
COC(=O)CCCCC(=O)NCC(=O)N(C)c1ccc(OC)c(COc2cccc3ccc(C)nc23)c1SC [Example 20, 8-[6-Methoxy-2-methylthio-3-(N-5-methoxycarbonylpentanoylglycyl-N-methyl)aminobenzyloxy]-2-methylquinoline]	5.4 nM	56 nM
CCNC(=O)NCC(=O)N(C)c1ccc(Cl)c(COc2cccc3ccc(C)nc23)c1C#N [Example 1, 8-[6-Chloro-2-cyano-3-(N-ethylaminocarbonylglycyl-N-methyl)amino-benzyloxy]-2-methylquinoline]	8.3 nM	–
